# Target: one or more of HDAC-4, HDAC-5, HDAC-6, HDAC-7, HDAC-8, HDAC-9, HDAC-10 and HDAC-11
# Assay: Inhibition of histone deacetylase enzymatic activity (summary statement over isoforms)
# Assay type: biochemical
# Conditions: Table 3, selected examples; HDAC isoform not given
# How it was run: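 Activity was measured as deacetylation of the fluorogenic substrate Boc-Lys(trifluoroacetyl)-AMC over 20-30 min at 37 °C, after a 5 min room-temperature preincubation of enzyme with compound. Trypsin (1 mg/mL) with a reference HDAC inhibitor ended the reaction.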
row,IC50 [µM],Structure (SMILES)
1,< 1,"CC(C)=CCOc1cccc(C(C(=O)NO)c2ccccc2)c1 (stereo not drawn) [Compound 3-5, N-hydroxy-2-(3-(3-methylbut-2-enyloxy)phenyl)-2-phenylacetamide]"
2,< 1,"CN(C)CCCOc1cccc(C(C(=O)NO)c2ccccc2)c1 (stereo not drawn) [Compound 3-15, 2-(3-(3-(dimethylamino)propoxy)phenyl)-N-hydroxy-2-phenylacetamide]"
3,< 1,"CN(C)CCCOc1ccc(C(C(=O)NO)c2ccccc2)cc1 (stereo not drawn) [Compound 3-16, 2-(4-(3-(dimethylamino)propoxy)phenyl)-N-hydroxy-2-phenylacetamide]"
4,< 1,"CC(COc1cccc(C(C(=O)NO)c2ccccc2)c1)CN(C)C (stereo not drawn) [Compound 3-17, 2-(3-(3-(dimethylamino)-2-methylpropoxy)phenyl)-N-hydroxy-2-phenylacetamide]"
5,< 1,"O=C(NO)C(c1ccccc1)c1cccc(OCCN2CCCC2)c1 (stereo not drawn) [Compound 3-19, N-hydroxy-2-phenyl-2-(3-(2-(pyrrolidin-1-yl)ethoxy)phenyl)acetamide]"
6,< 1,"CN1CCCC1CCOc1cccc(C(C(=O)NO)c2ccccc2)c1 (stereo not drawn) [Compound 3-20, N-hydroxy-2-(3-(2-(1-methylpyrrolidin-2-yl)ethoxy)phenyl)-2-phenylacetamide]"
7,1 to 15,"COc1cccc(C(C(=O)NO)c2ccccc2)c1 (stereo not drawn) [Compound 3-21, N-hydroxy-2-(3-methoxyphenyl)-2-phenylacetamide]"
8,< 1,"CCOc1cccc(C(C(=O)NO)c2ccccc2)c1 (stereo not drawn) [Compound 3-22, 2-(3-ethoxyphenyl)-N-hydroxy-2-phenylacetamide]"
9,1 to 15,"C=CCOc1cccc(C(C(=O)NO)c2ccccc2)c1 (stereo not drawn) [Compound 3-24, 2-(3-(allyloxy)phenyl)-N-hydroxy-2-phenylacetamide]"
10,1 to 15,"O=C(NO)C(c1ccccc1)c1cccc(OCC2CC2)c1 (stereo not drawn) [Compound 3-25, 2-(3-(cyclopropylmethoxy)phenyl)-N-hydroxy-2-phenylacetamide]"
11,1 to 15,"C=CCCOc1cccc(C(C(=O)NO)c2ccccc2)c1 (stereo not drawn) [Compound 3-26, 2-(3-(but-3-enyloxy)phenyl)-N-hydroxy-2-phenylacetamide]"
12,1 to 15,"COCCOc1cccc(C(C(=O)NO)c2ccccc2)c1 (stereo not drawn) [Compound 3-27, N-hydroxy-2-(3-(2-methoxyethoxy)phenyl)-2-phenylacetamide]"

# Continued, molecule first:
row,Structure (SMILES),IC50 [µM]
1,"CCc1ccc(-c2cccc(C(C(=O)NO)c3ccccc3)c2)cc1 (stereo not drawn) [Compound 2-102, 2-(4′-ethylbiphenyl-3-yl)-N-hydroxy-2-phenylacetamide]",< 1
2,"O=C(NO)C(c1ccccc1)c1cccc(-c2ccc(Cl)cc2)c1 (stereo not drawn) [Compound 2-103, 2-(4′-chlorobiphenyl-3-yl)-N-hydroxy-2-phenylacetamide]",< 1
3,"O=C(NO)C(c1ccccc1)c1cccc(-c2ccc3c(c2)CCO3)c1 (stereo not drawn) [Compound 2-104, 2-(3-(2,3-dihydrobenzofuran-5-yl)phenyl)-N-hydroxy-2-phenylacetamide]",< 1
4,"CN(C)c1ccc(-c2cccc(C(C(=O)NO)c3ccccc3)c2)cc1 (stereo not drawn) [Compound 2-105, 2-(4′-(dimethylamino)biphenyl-3-yl)-N-hydroxy-2-phenylacetamide]",< 1
5,"COc1ccc(-c2cccc(C(C(=O)NO)c3ccccc3)c2)cc1OC (stereo not drawn) [Compound 2-106, 2-(3′,4′-dimethoxybiphenyl-3-yl)-N-hydroxy-2-phenylacetamide]",< 1
6,"CCSc1ccc(-c2cccc(C(C(=O)NO)c3ccccc3)c2)cc1 (stereo not drawn) [Compound 2-107, 2-(4′-(ethylthio)biphenyl-3-yl)-N-hydroxy-2-phenylacetamide]",< 1
7,"O=C(NO)C(c1ccccc1)c1cccc(-c2ccccc2C(F)(F)F)c1 (stereo not drawn) [Compound 2-108, N-hydroxy-2-phenyl-2-(2′-(trifluoromethyl)biphenyl-3-yl)acetamide]",< 1
8,"CN(C)C(=O)c1ccc(-c2cccc(C(C(=O)NO)c3ccccc3)c2)cc1 (stereo not drawn) [Compound 2-109, 3′-(2-(hydroxyamino)-2-oxo-1-phenylethyl)-N,N-dimethylbiphenyl-4-carboxamide]",< 1
9,"CS(=O)(=O)c1ccc(-c2cccc(C(C(=O)NO)c3ccccc3)c2)cc1 (stereo not drawn) [Compound 2-110, N-hydroxy-2-(4′-(methylsulfonyl)biphenyl-3-yl)-2-phenylacetamide]",< 1
10,"CCc1ccc(-c2ccc(C(C(=O)NO)c3ccccc3)cc2)cc1 (stereo not drawn) [Compound 2-111, 2-(4′-ethylbiphenyl-4-yl)-N-hydroxy-2-phenylacetamide]",< 1
11,"O=C(NO)C(c1ccccc1)c1ccc(-c2ccc(Cl)cc2)cc1 (stereo not drawn) [Compound 2-112, 2-(4′-chlorobiphenyl-4-yl)-N-hydroxy-2-phenylacetamide]",< 1
12,"O=C(NO)C(c1ccccc1)c1ccc(-c2ccc3c(c2)CCO3)cc1 (stereo not drawn) [Compound 2-113, 2-(4-(2,3-dihydrobenzofuran-5-yl)phenyl)-N-hydroxy-2-phenylacetamide]",< 1
13,"COc1ccc(-c2ccc(C(C(=O)NO)c3ccccc3)cc2)cc1OC (stereo not drawn) [Compound 2-114, 2-(3′,4′-dimethoxybiphenyl-4-yl)-N-hydroxy-2-phenylacetamide]",< 1
14,"CCSc1ccc(-c2ccc(C(C(=O)NO)c3ccccc3)cc2)cc1 (stereo not drawn) [Compound 2-115, 2-(4′-(ethylthio)biphenyl-4-yl)-N-hydroxy-2-phenylacetamide]",< 1
15,"CN(C)C(=O)c1ccc(-c2ccc(C(C(=O)NO)c3ccccc3)cc2)cc1 (stereo not drawn) [Compound 2-116, 4′-(2-(hydroxyamino)-2-oxo-1-phenylethyl)-N,N-dimethylbiphenyl-4-carboxamide]",< 1
16,"O=C(NO)C(c1ccccc1)c1ccc(-c2ccc(Oc3ccccc3)cc2)cc1 (stereo not drawn) [Compound 2-117, N-hydroxy-2-(4′-phenoxybiphenyl-4-yl)-2-phenylacetamide]",< 1
17,"COc1ccc(COc2cccc(C(C(=O)NO)c3ccccc3)c2)cc1 (stereo not drawn) [Compound 3-6, N-hydroxy-2-(3-(4-methoxybenzyloxy)phenyl)-2-phenylacetamide]",< 1
18,"CC(Oc1cccc(C(C(=O)NO)c2ccccc2)c1)c1ccccc1 (stereo not drawn) [Compound 3-8, N-hydroxy-2-phenyl-2-(3-(1-phenylethoxy)phenyl)acetamide]",1 to 15
19,"O=C(NO)C(c1ccccc1)c1cccc(OC/C=C/c2ccccc2)c1 (stereo not drawn) [Compound 3-9, (E)-2-(3-(cinnamyloxy)phenyl)-N-hydroxy-2-phenylacetamide]",< 1
20,"O=C(NO)C(c1ccccc1)c1cccc(OCc2cccc(Cl)c2)c1 (stereo not drawn) [Compound 3-10, 2-(3-(3-chlorobenzyloxy)phenyl)-N-hydroxy-2-phenylacetamide]",< 1
21,"O=C(NO)C(c1ccccc1)c1cccc(N2CCN(Cc3ccncc3)CC2)c1 (stereo not drawn) [Compound 3-12, N-hydroxy-2-phenyl-2-(3-(4-(pyridin-4-ylmethyl)piperazin-1-yl)phenyl)acetamide]",< 1
22,"CC(=O)Nc1ccc(C(C(=O)NO)c2ccccc2)cc1 (stereo not drawn) [Compound 3-13, 2-(4-acetamidophenyl)-N-hydroxy-2-phenylacetamide]",< 1
23,"O=C(Nc1cccc(C(C(=O)NO)c2ccccc2)c1)c1ccnc(Cl)c1 (stereo not drawn) [Compound 3-14, 2-chloro-N-(3-(2-(hydroxyamino)-2-oxo-1-phenylethyl)phenyl)isonicotinamide]",1 to 15
24,"CC(COc1ccc(C(C(=O)NO)c2ccccc2)cc1)CN(C)C (stereo not drawn) [Compound 3-18, 2-(4-(3-(dimethylamino)-2-methylpropoxy)phenyl)-N-hydroxy-2-phenylacetamide]",1 to 15

# From patent US9096565B2, “Inhibitors of histone deacetylase” (MethylGene Inc., priority 2007, dated 2015)
